Molecular target: P-glycoprotein 1 and 3 (MDR1a/MDR1b) (Mus musculus, UniProt P21447+P06795)
Assay: TP_TRANSPORTER: increase in brain concentration in mdr1a/1b(-/-) mouse
Format: functional, organism-based
Conditions: in vivo

Activity: substrate [+]
Structure (SMILES): COc1ccc(N(C)S(C)(=O)=O)cc1CN[C@H]1CCCN[C@H]1c1ccccc1
